Experiments:
rat [1] = details: Sub-acute dermal toxicity, wistar, Topical, dose end: 28 day, group: systemic, systemic / clinical chemistry / cholesterol / cholesterol + systemic / clinical chemistry / globulins / globulins + systemic / clinical …
rabbit [2] = details: Prenatal developmental toxicity study, new zealand white, Oral, Gavage/Intubation, dose end: 18 GD
rat [3] = details: Subchronic oral toxicity in rodents, wistar, Feed, dose end: 13 week, group: systemic
rat [4] = details: Subchronic oral toxicity in rodents, wistar, Feed, dose end: 13 week, group: systemic, systemic / clinical chemistry / calcium / calcium + systemic / clinical chemistry / creatinine / creatinine + systemic / clinical chemistry…
rat [5] = details: Subchronic oral toxicity in rodents, wistar, Feed, dose end: 13 week, group: systemic; remark: listed apart in the source
mouse [6] = details: Carcinogenicity; cd1; Oral; Feed; dose end: 88 week; group: systemic; systemic / pathology microscopic / liver / hypertrophy + systemic / pathology microscopic / liver / inflammation + systemic / pathology …
dog [7] = details: Chronic toxicity; beagle; Oral; Feed; dose end: 52 week; group: systemic; systemic / clinical chemistry / cytochrome p450, nos / cytochrome p450, nos + systemic / clinical chemistry / glutathione-s-transferase / …
rabbit [8] = details: Prenatal developmental toxicity study, new zealand white, Oral, Gavage/Intubation, dose end: 18 GD; remark: listed apart in the source
mouse [9] = details: Subchronic oral toxicity in rodents, cd1, Feed, dose end: 13 week, group: systemic, systemic / in life observation / body weight / body weight gain + systemic / organ weight / liver / absolute + systemic / organ weight / …
dog [10] = details: Subchronic oral toxicity in nonrodent, beagle, Feed, dose end: 13 week, group: systemic, systemic / clinical chemistry / alkaline phosphatase (alp/alk) / alkaline phosphatase (alp/alk) + systemic / clinical chemistry / gamma …
rat [11] = details: Prenatal developmental toxicity study, wistar, Oral, Gavage/Intubation, dose end: 15 GD
rabbit [12] = details: Sub-acute dermal toxicity, new zealand white, Topical, dose end: 21 day, group: systemic, systemic / in life observation / clinical signs / desquamation + systemic / in life observation / clinical signs / erythema + systemic / …
rat [13] = details: Sub-acute repeat dose toxicity; wistar; Oral; Feed; dose end: 4 week; group: systemic; systemic / clinical chemistry / lactic acid dehydrogenase (ldh) / lactic acid dehydrogenase (ldh) + systemic / organ weight / liver / …
rat [14] = details: Sub-acute repeat dose toxicity, wistar, Oral, Feed, dose end: 4 week, group: systemic
mouse [15] = details: Sub-acute repeat dose toxicity; b6c3f1; Oral; Gavage/Intubation; dose end: 14 day; group: systemic; systemic / in life observation / mortality / mortality
rat [16] = details: Sub-acute repeat dose toxicity, fischer, Oral, Gavage/Intubation, dose end: 14 day, group: systemic
rat [17] = details: Prenatal developmental toxicity study, sprague dawley, Oral, Gavage/Intubation, dose end: 20 GD
rat [18] = details: Subchronic oral toxicity in rodents, fischer, Gavage/Intubation, dose end: 13 week, group: systemic
mouse [19] = details: Carcinogenicity; b6c3f1; Oral; Gavage/Intubation; dose end: 103 week; group: systemic; systemic / pathology microscopic / stomach / hyperplasia + systemic / pathology microscopic / stomach / inflammation
rat [20] = details: Carcinogenicity, fischer, Oral, Gavage/Intubation, dose end: 103 week, group: systemic
rat [21] = details: Combined chronic toxicity/carcinogenicity, fischer, Oral, Feed, dose end: 2 year, group: systemic
mouse [22] = details: Multigenerational reproductive toxicity study, Other, Oral, Feed, dose end: 90 day
rat [23] = details: Sub-acute repeat dose toxicity, sprague dawley, Oral, Gavage/Intubation, dose end: 36 day, group: systemic
mouse [24] = details: Carcinogenicity, Oral, Feed, dose end: 720 day, group: systemic
rat [25] = details: Fertility (Segment I); sprague dawley; Oral; Gavage/Intubation; dose end: 1 generation; group: parental; systemic / in life observation / body weight / body weight gain
[26] = group: developmental, systemic / in life observation / body weight / fetal weight
[27] = group: developmental, systemic / in life observation / body weight / fetal weight + developmental / developmental malformation / bone / [other] + developmental / …
[28] = group: maternal, reproductive / reproductive performance / postimplantation loss / postimplantation loss + systemic / in life observation / body weight / …
[29] = systemic / in life observation / body weight / body weight gain + systemic / clinical chemistry / alanine aminotransferase (alt/sgpt) / …
[30] = systemic / pathology microscopic / thyroid gland / hypertrophy
[31] = group: developmental, developmental / developmental malformation / general / [other] + developmental / developmental malformation / limb / malrotated
[32] = group: maternal, systemic / in life observation / body weight / body weight gain
[33] = group: maternal, systemic / in life observation / body weight / body weight gain + systemic / in life observation / food consumption / food consumption
[34] = group: developmental, developmental / developmental malformation / bone / full supernumerary
[35] = group: developmental, developmental / developmental malformation / bone / full supernumerary + developmental / developmental malformation / bone / incomplete …
[36] = group: maternal, systemic / in life observation / body weight / body weight gain + reproductive / reproductive performance / postimplantation loss / …
[37] = systemic / pathology microscopic / liver / lipid deposition + systemic / pathology microscopic / liver / vacuolization
[38] = systemic / pathology microscopic / liver / lipid deposition + systemic / pathology microscopic / liver / vacuolization + systemic / clinical…
[39] = systemic / pathology gross / intestine large / enlarged + systemic / pathology gross / liver / mottling
[40] = group: developmental, developmental / developmental malformation / bone / ossification sites + systemic / in life observation / body weight / fetal weight
[41] = group: maternal, systemic / in life observation / body weight / body weight gain + systemic / in life observation / food consumption / food consumption + …
[42] = systemic / pathology microscopic / liver / basophilic focus + systemic / pathology microscopic / liver / hypertrophy + systemic / pathology …
[43] = systemic / pathology microscopic / liver / fibrosis + systemic / pathology microscopic / liver / hyperplasia + systemic / pathology …
[44] = systemic / pathology microscopic / liver / pigmentation
[45] = systemic / pathology microscopic / kidney / nephropathy + systemic / pathology microscopic / liver / cytomegaly + systemic / pathology …
[46] = systemic / pathology microscopic / liver / cytomegaly + systemic / in life observation / food consumption / food consumption
[47] = group: parental, systemic / in life observation / mortality / mortality
[48] = group: reproductive, reproductive / reproductive performance / fertility / fertility + reproductive / reproductive performance / mating / mating + reproductive…
[49] = systemic / in life observation / body weight / body weight gain + systemic / in life observation / water consumption / water consumption
[50] = systemic / in life observation / water consumption / water consumption
[51] = systemic / hematology / [other] / [other] + systemic / in life observation / body weight / body weight gain + systemic / in life observation…
[52] = systemic / in life observation / mortality / mortality

CC(C1CC1)C(O)(Cn1cncn1)c1ccc(Cl)cc1 (stereo not given) [Cyproconazole]
LEL (rat [1]): 100 mg/kg/day
LOAEL (rat [1]): 100 mg/kg/day
NEL (rat [1]): 10 mg/kg/day
NOAEL (rat [1]): 10 mg/kg/day
LOAEL (rabbit [2]; [26]): 60 mg/kg/day
LEL (rabbit [2]; [27]): 60 mg/kg/day
NEL (rabbit [2]; [27]): 10 mg/kg/day
NOAEL (rabbit [2]; [27]): 10 mg/kg/day
LEL (rabbit [2]; [28]): 60 mg/kg/day
LOAEL (rabbit [2]; [28]): 60 mg/kg/day
NEL (rabbit [2]; [28]): 10 mg/kg/day
NOAEL (rabbit [2]; [28]): 10 mg/kg/day
LOAEL (rat [3]; systemic / in life observation / body weight / body weight gain): 27.3 mg/kg/day
NEL (rat [3]; [29]): 1.5 mg/kg/day
NOAEL (rat [3]; [29]): 1.5 mg/kg/day
LEL (rat [3]; systemic / in life observation / body weight / body weight gain + systemic / in life observation / food consumption / food efficiency + …): 27.3 mg/kg/day
LEL (rat [4]): 1.5 mg/kg/day
LOAEL (rat [4]): > 21.4 mg/kg/day
NEL (rat [4]): < 1.5 mg/kg/day
NOAEL (rat [4]): ≥ 21.4 mg/kg/day
LOAEL (rat [5]; systemic / organ weight / liver / absolute + systemic / organ weight / liver / relative to body weight + systemic / pathology microscopic / …): 24.7 mg/kg/day
LEL (rat [5]; [30]): 1.4 mg/kg/day
NEL (rat [5]; [30]): < 1.4 mg/kg/day
NOAEL (rat [5]; systemic / pathology microscopic / thyroid gland / hypertrophy + systemic / organ weight / liver / absolute + systemic / organ weight / …): 1.4 mg/kg/day
LEL (mouse [6]): 13.2 mg/kg/day
LOAEL (mouse [6]): 13.2 mg/kg/day
NEL (mouse [6]): 1.84 mg/kg/day
NOAEL (mouse [6]): 1.84 mg/kg/day
LEL (dog [7]): 3.2 mg/kg/day
LOAEL (dog [7]): 3.2 mg/kg/day
NEL (dog [7]): 1 mg/kg/day
NOAEL (dog [7]): 1 mg/kg/day
LOAEL (rabbit [8]; group: developmental, developmental / developmental malformation / general / [other]): 10 mg/kg/day
LEL (rabbit [8]; [31]): 10 mg/kg/day
NEL (rabbit [8]; [31]): 2 mg/kg/day
NOAEL (rabbit [8]; [31]): 2 mg/kg/day
LOAEL (rabbit [8]; [32]): 50 mg/kg/day
LEL (rabbit [8]; [33]): 50 mg/kg/day
NEL (rabbit [8]; [33]): 10 mg/kg/day
NOAEL (rabbit [8]; [33]): 10 mg/kg/day
LEL (mouse [9]): 43.8 mg/kg/day
LOAEL (mouse [9]): 43.8 mg/kg/day
NEL (mouse [9]): 2.2 mg/kg/day
NOAEL (mouse [9]): 2.2 mg/kg/day
LEL (dog [10]): 20 mg/kg/day
LOAEL (dog [10]): 20 mg/kg/day
NEL (dog [10]): 4 mg/kg/day
NOAEL (dog [10]): 4 mg/kg/day
LEL (rat [11]; [34]): 12 mg/kg/day
LOAEL (rat [11]; [34]): 12 mg/kg/day
NEL (rat [11]; [35]): 6 mg/kg/day
NOAEL (rat [11]; [35]): 6 mg/kg/day
LEL (rat [11]; [32]): 12 mg/kg/day
LOAEL (rat [11]; [32]): 12 mg/kg/day
NEL (rat [11]; [36]): 6 mg/kg/day
NOAEL (rat [11]; [36]): 6 mg/kg/day
LEL (rabbit [12]): 1000 mg/kg/day
LOAEL (rabbit [12]): 1000 mg/kg/day
NEL (rabbit [12]): 300 mg/kg/day
NOAEL (rabbit [12]): 300 mg/kg/day
LEL (rat [13]): 25.3 mg/kg/day
LOAEL (rat [13]): 25.3 mg/kg/day
NEL (rat [13]): 8.14 mg/kg/day
NOAEL (rat [13]): 8.14 mg/kg/day
LEL (rat [14]; [37]): 527 mg/kg/day
LOAEL (rat [14]; [37]): 527 mg/kg/day
NEL (rat [14]; [38]): 155 mg/kg/day
NOAEL (rat [14]; [38]): 155 mg/kg/day

C=CCOC(=O)c1ccccc1C(=O)OCC=C [Diallyl phthalate]
LEL (mouse [15]): 400 mg/kg/day
LOAEL (mouse [15]): > 600 mg/kg/day
NEL (mouse [15]): 200 mg/kg/day
NOAEL (mouse [15]): ≥ 600 mg/kg/day
LEL (rat [16]; [39]): 50 mg/kg/day
NEL (rat [16]; [39]): < 50 mg/kg/day
NOAEL (rat [16]; systemic / pathology gross / liver / discolored + systemic / pathology gross / liver / enlarged + systemic / pathology gross / liver / …): 100 mg/kg/day
LOAEL (rat [16]; systemic / pathology gross / liver / mottling + systemic / pathology gross / liver / discolored + systemic / pathology gross / liver / …): 200 mg/kg/day
LOAEL (rat [17]; [40]): > 250 mg/kg/day
NEL (rat [17]; [40]): 150 mg/kg/day
NOAEL (rat [17]; [40]): ≥ 250 mg/kg/day
LEL (rat [17]; [26]): 200 mg/kg/day
LOAEL (rat [17]; [41]): > 250 mg/kg/day
NEL (rat [17]; [41]): 100 mg/kg/day
NOAEL (rat [17]; [41]): ≥ 250 mg/kg/day
LEL (rat [17]; group: maternal, systemic / pathology gross / liver / discolored + systemic / pathology gross / liver / mottling): 150 mg/kg/day
NOAEL (rat [18]; systemic / in life observation / clinical signs / defecation (diarrhea) + systemic / in life observation / clinical signs / emaciation + …): 100 mg/kg/day
LEL (rat [18]; [42]): 50 mg/kg/day
LOAEL (rat [18]; [42]): 200 mg/kg/day
NEL (rat [18]; [42]): 25 mg/kg/day
LEL (mouse [19]): 150 mg/kg/day
LOAEL (mouse [19]): 150 mg/kg/day
NEL (mouse [19]): < 150 mg/kg/day
NOAEL (mouse [19]): < 150 mg/kg/day
LOAEL (rat [20]; [43]): 100 mg/kg/day
NOAEL (rat [20]; [43]): 50 mg/kg/day
LEL (rat [20]; [44]): 50 mg/kg/day
NEL (rat [20]; [44]): < 50 mg/kg/day

ClC1(Cl)C2(Cl)C3(Cl)C4(Cl)C(Cl)(Cl)C5(Cl)C3(Cl)C1(Cl)C5(Cl)C24Cl (stereo not given) [Mirex]
LOAEL (rat [21]; [45]): 1.95 mg/kg/day
NOAEL (rat [21]; [45]): 0.75 mg/kg/day
LEL (rat [21]; [46]): 0.007 mg/kg/day
NEL (rat [21]; [46]): < 0.007 mg/kg/day
LEL (mouse [22]; [47]): 0.25 mg/kg/day
LOAEL (mouse [22]; [47]): > 0.25 mg/kg/day
NEL (mouse [22]; [47]): < 0.25 mg/kg/day
NOAEL (mouse [22]; [47]): ≥ 0.25 mg/kg/day
LEL (mouse [22]; [48]): 0.25 mg/kg/day
LOAEL (mouse [22]; [48]): > 0.25 mg/kg/day
NEL (mouse [22]; [48]): < 0.25 mg/kg/day
NOAEL (mouse [22]; [48]): ≥ 0.25 mg/kg/day

CS(=O)(=O)N[C@@H](CCCCN)C(=O)NC[C@H](CC1(C(=O)N[C@@H](Cc2ccc(O)cc2)C(=O)O)CCCC1)C(=O)O [Sampatrilat]
LOAEL (rat [23]; [49]): > 300 mg/kg/day
NOAEL (rat [23]; [49]): ≥ 300 mg/kg/day
LEL (rat [23]; [50]): 30 mg/kg/day
NEL (rat [23]; [50]): < 30 mg/kg/day
LOAEL (mouse [24]; [51]): > 600 mg/kg/day
NOAEL (mouse [24]; [51]): ≥ 600 mg/kg/day
LEL (mouse [24]; [52]): 40 mg/kg/day
NEL (mouse [24]; [52]): < 40 mg/kg/day
LEL (rat [25]): 200 mg/kg/day
LOAEL (rat [25]): > 1000 mg/kg/day
NEL (rat [25]): 50 mg/kg/day
NOAEL (rat [25]): ≥ 1000 mg/kg/day

Reference: EPA's ToxRefDB 2
